Key:
HeLa cells = test: Cell cycle analysis with HeLa cells; format: cell-based, human; conditions: 18 hr
Method: HeLa cells are harvested by trypsinization, washed, counted and distributed to wells of 12-well plates at 125,000 cells per well in 2 mL medium. Cells are cultured overnight. […] Cells are continued in culture for 18 hr after compound addition, then cells in each well are harvested (taking care to recover both adherent and non-adherent cells) and processed using the CycleTEST PLUS kit (Becton Dickinson Immunocytometry Systems, San Jose, Calif.). Flow cytometry is done with a FACSort instrument (Becton Dickinson).
This procedure measures the percentages of cells in a population that are in the G1, S, and G2/M phases of the cell cycle. It utilizes staining of cell nuclei with propidium iodide and analysis by flow cytometry.

pure tubulin = test: Tubulin polymerization test with pure tubulin without GTP; format: biochemical, bovine; conditions: no GTP
Method: Medium is RPMI-1640 with L-glutamine, supplemented with 10% heat-inactivated fetal calf serum, 100 units/ml penicillin, and 100 μg/ml streptomycin (Gibco, Grand Island, N.Y.). Microtubule-associated protein (MAP)-rich tubulin, containing about 70% tubulin and 30% MAPs (#ML113), and highly purified tubulin (>99% pure, #TL238), both from bovine brain, are obtained from Cytoskeleton, Inc., Denver, Colo. PEM buffer (80 mM piperazine-N,N′-bis[2-ethanesulfonic acid], pH 6.9, 1 mM ethylene glycol-bis(β-aminoethyl ether)-N,N,N′,N′-tetraacetic acid, 1 mM magnesium chloride) and guanosine 5′-triphosphate (GTP) are also obtained from Cytoskeleton. [3H]paclitaxel, specific activity 14.7 Ci/mmol, is purchased from Moravek Biochemicals (Brea, Calif.). [^3H]vinblastine, specific activity 9.60 Ci/mmol and MicroSpin G-50 columns are obtained from Amersham Biosciences (Piscataway, N.J.). […] Other reagents are obtained from Sigma (St. Louis, Mo.).
Two variations of this procedure are done, one using MAP-rich tubulin and one using pure tubulin.
The procedure with pure tubulin is similar except for the following changes. […] The supernatant after centrifugation is dispensed to a 96-well plate already containing compounds. Each compound is tested in duplicate at six serial 3-fold dilutions starting at 24.3 μM. The plate reader is thermostated at 35°.

CC(=O)O[C@@]12CO[C@@H]1C[C@H](O)[C@@]1(C)C(=O)[C@H](O)C3=C(C)[C@@H](OC(=O)[C@H](O)[C@@H](NC(=O)OC(C)(C)C)c4ccccc4)C[C@@](O)([C@@H](OC(=O)c4ccccc4)[C@H]21)C3(C)C [Docetaxel, reference compound]
Percent in Cell Cycle Phase >4N (HeLa cells; 0.25 nM): 2%
Percent in Cell Cycle Phase Apop (HeLa cells; 0.25 nM): 8%
Percent in Cell Cycle Phase G1 (HeLa cells; 0.25 nM): 58%
Percent in Cell Cycle Phase G2/M (HeLa cells; 0.25 nM): 16%
Percent in Cell Cycle Phase S (HeLa cells; 0.25 nM): 17%
Percent in Cell Cycle Phase >4N (HeLa cells; 0.5 nM): 2%
Percent in Cell Cycle Phase Apop (HeLa cells; 0.5 nM): 19%
Percent in Cell Cycle Phase G1 (HeLa cells; 0.5 nM): 48%
Percent in Cell Cycle Phase G2/M (HeLa cells; 0.5 nM): 14%
Percent in Cell Cycle Phase S (HeLa cells; 0.5 nM): 18%
Percent in Cell Cycle Phase >4N (HeLa cells; 1 nM): 2%
Percent in Cell Cycle Phase Apop (HeLa cells; 1 nM): 35%
Percent in Cell Cycle Phase G1 (HeLa cells; 1 nM): 35%
Percent in Cell Cycle Phase G2/M (HeLa cells; 1 nM): 14%
Percent in Cell Cycle Phase S (HeLa cells; 1 nM): 15%
Percent in Cell Cycle Phase >4N (HeLa cells; 2 nM): 2%
Percent in Cell Cycle Phase Apop (HeLa cells; 2 nM): 48%
Percent in Cell Cycle Phase G1 (HeLa cells; 2 nM): 19%
Percent in Cell Cycle Phase G2/M (HeLa cells; 2 nM): 14%
Percent in Cell Cycle Phase S (HeLa cells; 2 nM): 18%
Percent in Cell Cycle Phase >4N (HeLa cells; 3 nM): 2%
Percent in Cell Cycle Phase Apop (HeLa cells; 3 nM): 52%
Percent in Cell Cycle Phase G1 (HeLa cells; 3 nM): 15%
Percent in Cell Cycle Phase G2/M (HeLa cells; 3 nM): 14%
Percent in Cell Cycle Phase S (HeLa cells; 3 nM): 17%
Percent in Cell Cycle Phase >4N (HeLa cells; 4 nM): 2%
Percent in Cell Cycle Phase Apop (HeLa cells; 4 nM): 49%
Percent in Cell Cycle Phase G1 (HeLa cells; 4 nM): 12%
Percent in Cell Cycle Phase G2/M (HeLa cells; 4 nM): 22%
Percent in Cell Cycle Phase S (HeLa cells; 4 nM): 16%
Percent in Cell Cycle Phase >4N (HeLa cells; 5 nM): 3%
Percent in Cell Cycle Phase Apop (HeLa cells; 5 nM): 42%
Percent in Cell Cycle Phase G1 (HeLa cells; 5 nM): 9%
Percent in Cell Cycle Phase G2/M (HeLa cells; 5 nM): 31%
Percent in Cell Cycle Phase S (HeLa cells; 5 nM): 17%
Percent in Cell Cycle Phase >4N (HeLa cells; 6 nM): 4%
Percent in Cell Cycle Phase Apop (HeLa cells; 6 nM): 37%
Percent in Cell Cycle Phase G1 (HeLa cells; 6 nM): 10%
Percent in Cell Cycle Phase G2/M (HeLa cells; 6 nM): 33%
Percent in Cell Cycle Phase S (HeLa cells; 6 nM): 17%
Percent in Cell Cycle Phase >4N (HeLa cells; 8 nM): 4%
Percent in Cell Cycle Phase Apop (HeLa cells; 8 nM): 29%
Percent in Cell Cycle Phase G1 (HeLa cells; 8 nM): 7%
Percent in Cell Cycle Phase G2/M (HeLa cells; 8 nM): 48%
Percent in Cell Cycle Phase S (HeLa cells; 8 nM): 11%
Percent in Cell Cycle Phase >4N (HeLa cells; 10 nM): 4%
Percent in Cell Cycle Phase Apop (HeLa cells; 10 nM): 35%
Percent in Cell Cycle Phase G1 (HeLa cells; 10 nM): 9%
Percent in Cell Cycle Phase G2/M (HeLa cells; 10 nM): 37%
Percent in Cell Cycle Phase S (HeLa cells; 10 nM): 16%
Percent in Cell Cycle Phase >4N (HeLa cells; 20 nM): 3%
Percent in Cell Cycle Phase Apop (HeLa cells; 20 nM): 38%
Percent in Cell Cycle Phase G1 (HeLa cells; 20 nM): 8%
Percent in Cell Cycle Phase G2/M (HeLa cells; 20 nM): 40%
Percent in Cell Cycle Phase S (HeLa cells; 20 nM): 12%
absorbance increase, polymerization of pure tubulin (pure tubulin; 0.1 μM): small increase in absorbance
A340 at 0 min (pure tubulin; 24.3 μM): 0
A340 at 5 min (pure tubulin; 24.3 μM): 0.20
A340 at 10 min (pure tubulin; 24.3 μM): 0.20
A340 at 15 min (pure tubulin; 24.3 μM): 0.20
A340 at 20 min (pure tubulin; 24.3 μM): 0.20
absorbance increase, polymerization of pure tubulin (pure tubulin; 24.3 μM, first 5 min): rapid increase in absorbance

COc1cc2c(c(OC)c1OC)-c1ccc(OC)c(=O)cc1[C@@H](NC(C)=O)CC2 [Colchicine, reference compound]
Percent in Cell Cycle Phase >4N (HeLa cells; 5 nM): 2%
Percent in Cell Cycle Phase Apop (HeLa cells; 5 nM): 6%
Percent in Cell Cycle Phase G1 (HeLa cells; 5 nM): 60%
Percent in Cell Cycle Phase G2/M (HeLa cells; 5 nM): 16%
Percent in Cell Cycle Phase S (HeLa cells; 5 nM): 17%
Percent in Cell Cycle Phase >4N (HeLa cells; 10 nM): 2%
Percent in Cell Cycle Phase Apop (HeLa cells; 10 nM): 7%
Percent in Cell Cycle Phase G1 (HeLa cells; 10 nM): 59%
Percent in Cell Cycle Phase S (HeLa cells; 10 nM): 16%
Percent in Cell Cycle Phase >4N (HeLa cells; 15 nM): 2%
Percent in Cell Cycle Phase Apop (HeLa cells; 15 nM): 9%
Percent in Cell Cycle Phase G1 (HeLa cells; 15 nM): 50%
Percent in Cell Cycle Phase G2/M (HeLa cells; 15 nM): 23%
Percent in Cell Cycle Phase S (HeLa cells; 15 nM): 17%
Percent in Cell Cycle Phase >4N (HeLa cells; 17.5 nM): 2%
Percent in Cell Cycle Phase Apop (HeLa cells; 17.5 nM): 9%
Percent in Cell Cycle Phase G1 (HeLa cells; 17.5 nM): 51%
Percent in Cell Cycle Phase G2/M (HeLa cells; 17.5 nM): 21%
Percent in Cell Cycle Phase >4N (HeLa cells; 20 nM): 2%
Percent in Cell Cycle Phase Apop (HeLa cells; 20 nM): 13%
Percent in Cell Cycle Phase G1 (HeLa cells; 20 nM): 40%
Percent in Cell Cycle Phase G2/M (HeLa cells; 20 nM): 28%
Percent in Cell Cycle Phase >4N (HeLa cells; 25 nM): 3%
Percent in Cell Cycle Phase Apop (HeLa cells; 25 nM): 14%
Percent in Cell Cycle Phase G1 (HeLa cells; 25 nM): 36%
Percent in Cell Cycle Phase G2/M (HeLa cells; 25 nM): 27%
Percent in Cell Cycle Phase S (HeLa cells; 25 nM): 20%
Percent in Cell Cycle Phase >4N (HeLa cells; 30 nM): 3%
Percent in Cell Cycle Phase Apop (HeLa cells; 30 nM): 14%
Percent in Cell Cycle Phase G1 (HeLa cells; 30 nM): 27%
Percent in Cell Cycle Phase G2/M (HeLa cells; 30 nM): 36%
Percent in Cell Cycle Phase S (HeLa cells; 30 nM): 20%
Percent in Cell Cycle Phase >4N (HeLa cells; 40 nM): 4%
Percent in Cell Cycle Phase Apop (HeLa cells; 40 nM): 11%
Percent in Cell Cycle Phase G1 (HeLa cells; 40 nM): 16%
Percent in Cell Cycle Phase G2/M (HeLa cells; 40 nM): 48%
Percent in Cell Cycle Phase S (HeLa cells; 40 nM): 22%
Percent in Cell Cycle Phase >4N (HeLa cells; 50 nM): 4%
Percent in Cell Cycle Phase Apop (HeLa cells; 50 nM): 11%
Percent in Cell Cycle Phase G1 (HeLa cells; 50 nM): 11%
Percent in Cell Cycle Phase G2/M (HeLa cells; 50 nM): 56%
Percent in Cell Cycle Phase >4N (HeLa cells; 100 nM): 3%
Percent in Cell Cycle Phase Apop (HeLa cells; 100 nM): 15%
Percent in Cell Cycle Phase G1 (HeLa cells; 100 nM): 11%
Percent in Cell Cycle Phase G2/M (HeLa cells; 100 nM): 55%
Percent in Cell Cycle Phase S (HeLa cells; 100 nM): 16%

Source: patent US7507739B2, “6-[(substituted)phenyl]triazolopyrimidines as anticancer agents” (Wyeth, priority 2003, dated 2009)
